Several values for one entry are separate records, joined by “and”; a condition that tells them apart may be missing. Identical values can stand only once.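 Dose response: 5 concentrations. Exposure: 48 h. Format: 96-well plates. Endpoint: linear interpolation; highest concentration if not reached. At the GI50, growth is halved. TGI is the concentration that stops growth completely.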 Some results are limits rather than exact numbers.

In PubChem BioAssay (NCI) one finds TGI and GI50 data, which are given here for 12 compounds.

Assay in all cases: NCI-60 cell line screen, 48 h
Experiment [1] deals with SNB-75 CNS.
The subject of experiment [2] is NCI-H522 lung.
The subject of experiment [3] is HCT-15 colon.
Experiment [4] deals with M14 melanoma.
The test system of experiment [5] is HCC-2998 colon.
Experiment [6] deals with MDA-MB-231 breast.
Experiment [7] relates to A498 renal.
For experiment [8], the system named is COLO 205 colon.
Experiment [9] deals with 786-0 renal.
The subject of experiment [10] is A549 NSCLC.

Regarding `Oc1c(N=Nc2ccccc2)c2ccccc2c2ccc3ccccc3c12`, the TGI in [1], in experiment [2], in [3], in experiment [4], in [5] and in experiment [6] was above 100 µM in each case. Further, the TGI in [7], in [8], in experiment [9] and in experiment [10] was above 100 µM each time.

For the compound `O=C(/C=C/c1ccc(C(F)(F)F)cc1)c1ccc(Nc2nc(NCCO)nc(N3CCOCC3)n2)cc1`, the GI50 in experiment [1] is 1.84 µM; in experiment [2], 1.85 µM; in experiment [3], 1.89 µM; in experiment [4], 2.01 µM; in experiment [5], 2.34 µM; in [6], 2.69 µM. The GI50 was 1.4 µM in [7], 2.09 µM in experiment [8], 1.65 µM in [9] and 2.74 µM in experiment [10]. In addition, the TGI in [1] was 7.9 µM; in [2] it was 5.04 µM; in [3] it was 4.82 µM; in experiment [4], 4.28 µM; in experiment [5] it was 5.7 µM; in experiment [6], 9.74 µM. For the same compound, the TGI is 12 µM in [7], 4.08 µM in [8], 3.1 µM in experiment [9] and above 100 µM in experiment [10].

For the compound `N#CC1=C(N)Oc2c(sc3c(F)cccc23)C1c1ccc(F)cc1` (configuration not stated), the GI50 in [1] is 0.338 µM; in experiment [2], 0.473 µM; in experiment [3], 0.421 µM; in experiment [4], 0.41 µM; in experiment [5], 1.62 µM; in experiment [6], 1.44 µM. The GI50 in experiment [7] was 0.15 µM; in experiment [8], 2.83 µM; in [9], 0.746 µM; in experiment [10], 1.05 µM. Further, the TGI in experiment [1] was found to be 14.9 µM; in experiment [2] it was 10.8 µM; in experiment [3] it was 12 µM; in experiment [4], 6.41 µM; in experiment [5], 8.58 µM; in experiment [6] it was 11.5 µM. For the same compound, the TGI in [7] was determined as 0.909 µM; in [8], 13.2 µM; in [9], 11.7 µM; in experiment [10], 19.1 µM.

`C[C@@H]1C[C@@]2(O[C@@H]2C)C(=O)O[C@@H]2CCN3CC=C(COC(=O)[C@]1(C)O)[C@H]23`: the TGI in [1], in [2], in experiment [3], in [4], in experiment [5] and in [6] was above 100 µM each time. Also, the TGI in experiment [7], in experiment [8], in experiment [9] and in experiment [10] was above 100 µM each time.

On to `S=C(Nc1ccccc1)N(Cc1ccccc1)c1ccccc1`, for which the TGI in experiment [1] is above 100 µM; in experiment [2], 62.3 µM; in experiment [3], above 100 µM; in experiment [4], above 100 µM; in experiment [5] it was above 100 µM; in [6], above 100 µM. Moreover, the TGI in experiment [7] was 67.2 µM; in experiment [8], 51.8 µM; in [9], above 100 µM; in [10] it was above 100 µM.

`Oc1ccc(N=Nc2ccc(N=Nc3ccccc3)cc2)cc1`: the GI50 in experiment [1] is 9.84 µM; in [2], 0.832 µM; in [3], 0.855 µM; in [4] it was 3.01 µM; in experiment [5] it was 2.52 µM; in [6], 2.5 µM. Besides, the GI50 was 9.23 µM in experiment [7], 8.01 µM in [8], 1.32 µM in experiment [9] and 2.14 µM in experiment [10]. Also, the TGI in [1] amounted to 47.8 µM; in experiment [2], 3.94 µM; in experiment [3] it was 12.9 µM; in experiment [4] it was 10.1 µM; in [5], 11.1 µM; in experiment [6], 7.09 µM. Also, the TGI in experiment [7] came out at 21.7 µM; in [8] it was 24.4 µM; in experiment [9], 6.05 µM; in experiment [10], 12 µM.

Turning to `COc1ccc2c(c1)OC(N)=C(C#N)C2c1ccc(F)cc1` (configuration not stated), the GI50 in experiment [1] was 1.4 µM; in experiment [2] it was 0.604 µM; in experiment [3], 0.515 µM; in experiment [4], 0.529 µM; in experiment [5], 6.44 µM; in experiment [6], 3.09 µM. For the same compound, the GI50 was 2.81 µM in [7], 1.74 µM in [8], 3.96 µM in [9] and 4.94 µM in experiment [10]. Also, the TGI in experiment [1] was 13.3 µM; in experiment [2], 27.1 µM; in experiment [3] it was 51.6 µM; in [4], 44.2 µM; in experiment [5], above 100 µM; in experiment [6] it was 97.5 µM. Also, the TGI in experiment [7] is 63.4 µM; in experiment [8] it was 10.1 µM; in [9], above 100 µM; in experiment [10] it was above 100 µM.

Consider `O=P1(O)c2ccccc2Nc2cc(C(F)(F)F)ccc21`, for which the TGI in [1], in [2], in [3], in experiment [4], in [5] and in experiment [6] was above 100 µM throughout. In addition, the TGI in [7], in experiment [8], in experiment [9] and in [10] was above 100 µM in each case.

As to `CCCCCN(CCCCC)CC(O)c1cc2c(c3ccccc13)CCCC2` (configuration not stated), the GI50 is 10.4 µM and 11.9 µM in experiment [1]; 2.02 µM and 3.24 µM in experiment [2]; 5.31 µM and 6.52 µM in [3]; 4.76 µM and 10.4 µM in experiment [4]; 2.54 µM and 4.28 µM in experiment [5]; 3.01 µM and 7.04 µM in experiment [6]. Also, the GI50 in [7] is 3.34 µM and 10.8 µM; in experiment [8], 3.4 µM and 13.7 µM; in experiment [9], 3.75 µM and 6.51 µM; in experiment [10], 9.87 µM and 12.3 µM. Besides, the TGI in experiment [1] was 22.7 µM and 25.1 µM; in experiment [2], 7.72 µM and 13.4 µM; in experiment [3], 20.8 µM and 26.4 µM; in experiment [4], 16.3 µM and 23.8 µM; in experiment [5] it was 5.99 µM and 15.6 µM; in [6], 10.5 µM and 21.4 µM. For the same compound, the TGI in experiment [7] is 14.1 µM and 23.5 µM; in experiment [8], 13.8 µM and 80.5 µM; in experiment [9], 13 µM and 19.1 µM; in experiment [10], 22.8 µM and 29.7 µM.

On to `N#Cc1nc2cc(F)c(F)cc2nc1-c1ccc(Cl)cc1`, for which the GI50 was 33.1 µM in [1]; 13.5 µM in experiment [2]; 1.44 µM in experiment [3]; 7.93 µM in experiment [4]; 3.93 µM in experiment [5]; 82 µM in experiment [7]. Further, the values for the GI50 in experiment [8], in [9] and in experiment [10] were 26.9 µM, 16.3 µM and 39.3 µM, respectively. Also, the TGI in [1] is 83.1 µM; in experiment [2] it was above 48.2 µM; in [3], 2.76 µM; in experiment [4], 23.8 µM; in experiment [5] it was 17.6 µM; in [6] it was 5.3 µM. Besides, the TGI in experiment [7] is above 100 µM; in experiment [8], above 100 µM; in experiment [9], 43.9 µM; in experiment [10] it was above 100 µM.

For the compound `CNc1nc(N(C)C)nc(N(C)C)n1`, the GI50 in experiment [1] was > 100 µM and 473 µM; in [2], > 100 µM and 874 µM; in [3] it was > 100 µM and 936 µM; in experiment [5], > 100 µM and 1520 µM; in experiment [7], > 100 µM and 1300 µM; in experiment [8] it was > 100 µM and 1780 µM. For the same compound, the GI50 in [9] is > 100 µM and 2790 µM; in [10], > 100 µM and 2150 µM. In addition, the TGI in experiment [1] is > 100 µM and 1980 µM; in experiment [2], > 100 µM and 3370 µM; in experiment [3] it was > 100 µM and 2770 µM; in experiment [4], 2600 µM; in experiment [5], > 100 µM and 3590 µM; in [6] it was 2640 µM. The TGI is > 100 µM and 2970 µM in [7]; > 100 µM and 4010 µM in experiment [8]; > 100 µM and 4840 µM in experiment [9]; > 100 µM and 3500 µM in [10].

Consider `CC1=C(C(=O)Nc2ccc(F)c(Cl)c2)C(c2cccc(Oc3ccccc3)c2)NC(=O)N1` (configuration not stated), for which the GI50 in experiment [1] was 7.53 µM; in experiment [2], 14.9 µM; in [3], 15.4 µM; in [4] it was 15.2 µM; in experiment [5], 14.6 µM; in experiment [6], 16 µM. Further, the GI50 in [7] was 10.5 µM; in [8], 14.2 µM; in experiment [9] it was 15.4 µM; in experiment [10], 14.1 µM. In addition, the TGI in experiment [1] came to 20.4 µM; in experiment [2], 29.4 µM; in experiment [3], 28.9 µM; in [4] it was 29.3 µM; in experiment [5] it was 27.8 µM; in [6], 30.3 µM. For the same compound, the TGI amounted to 23.4 µM in [7], 29.6 µM in experiment [8], 29.8 µM in experiment [9] and 30.2 µM in experiment [10].
